Results published in patent publication US10179780B2, “Azole benzene derivative and crystalline form thereof” (TEIJIN PHARMA LIMITED, priority 2014, dated 2019).

Experiments:
[1] = tested on: level of uric acid in the plasma; assay: Hypouricemic effect (oxonic acid-induced hyperuricemic beagle dogs); assay type: in vivo; settings: hyperuricemic beagle dog, oral, 10 mg/kg, 8 hours after administration
Method: The hypouricemic effect was confirmed for the compounds (I) in oxonic acid-induced hyperuricmic beagle dog. […] Potassium oxonate (50 mg/kg) was subcutaneously administrated before and 4 hours after compound administration. After the blood was collected from the cephalic vein at 8 hours after administration, the plasma was separated. The level of uric acid in the plasma sample was measured by LC-MS/MS method and the percentage of hypouricemic effect was determined by the following expression: Percentage of hypouricemic effect (%)=(Level of uric acid of the control animal−Level of uric acid of the test compound-administered animal)×100/Level of uric acid of the control animal.

[2] = tested on: level of uric acid in the blood; assay: Prolonged hypouricemic effect (normal rats), 24 hours after oral administration; assay type: in vivo, Sprague-Dawley male rats; settings: 24 hours after administration
Method: The crystal form A of the compound (II) was administered to Sprague-Dawley male rats in the similar manner as Example 5.
After the blood was collected from the tail vein 24 hours after administration, the plasma was separated. The level of uric acid in the blood was measured by an uricase method using an absorption spectrometer and a uric acid determination kit (L type Wako UA F: Wako Pure Chemical Industries, Ltd.). The percentage of hypouricemic effect was determined by the following expression: Percentage of hypouricemic effect=(Level of uric acid of the control animal−Level of uric acid of the test compound-administered animal)×100/Level of uric acid of the control animal.

[3] = tested on: level of uric acid in the blood; assay: Hypouricemic effect (normal rats), 2 hours after oral administration; settings: 2 hours after administration
Method: A test compound suspended in a 0.5% methylcellulose solution was administered to 8 to 9 week-old Sprague-Dawley male rats (Japan Charles River Co.) by oral gavage administration using a feeding needle. After the blood was collected from the tail vein at 2 hours after administration, the plasma was separated. The level of uric acid in the blood sample was measured by uricase method using an absorption spectrometer as well as a uric acid determination kit (L type Wako UA F: Wako Pure Chemical Industries, Ltd.). The percentage of hypouricemic effect was determined by the following expression: Percentage of hypouricemic effect (%)=(Level of uric acid of the control animal−Level of uric acid of the test compound-administered animal)×100/Level of uric acid of the control animal.

[4] = Solubility into JP2 solution (pH 6.8); assay type: physicochemical
Method: The solubility of the compound (II) in JP2 solution (pH 6.8) was confirmed. A solution was prepared by mildly pulverizing the crystals A of the compound (II) in a mortar, and adding approximately 4 mg of the pulverized crystals to […] of JP2 solution while stirring at room temperature. The absorbance (At) of each solution at 280 nm was successively measured immediately after the addition of the crystals using an ultraviolet-visible absorbance measurement method and the solubility at each measurement time was determined by the following expression using the absorbance (As) of a standard solution at 280 mu determined in advance as an index. The measurement was continued until 120 minutes. Solubility=At/As×Cs (where Cs represents the concentration of a standard solution) • Measurement apparatus: μDISS Profiler manufactured by Pion Inc. • Stirring rate: 700 rpm • UV measurement wavelength: 280 nm • Measurement interval: Start of measurement to 1 minute: 3 seconds • 1 to 8 minutes: 20 seconds • 8 to 120 minutes: 2 minutes

Row | SMILES | hypouricemic effect [1] | Percentage of hypouricemic effect ([2]; 3 mg/kg) [%] | Percentage of hypouricemic effect ([2]; 10 mg/kg) [%] | Percentage of hypouricemic effect ([3]; 1 mg/kg) [%] | Percentage of hypouricemic effect ([3]; 10 mg/kg) [%] | Precipitation / maintenance of dissolved state ([4]; JP2 solution pH 6.8, up to 120 minutes after the addition) | Time until total amount was dissolved ([4]; approximately 4 mg of pulverized crystals in JP2 solution pH 6.8, 700 rpm) [s] | solubility at 120 minutes ([4]; aqueous buffer, thermodynamic from solid, JP2 solution pH 6.8, room temperature, at 120 minutes after the addition) [µg/mL] | solubility at 30 seconds ([4]; aqueous buffer, thermodynamic from solid, JP2 solution pH 6.8, room temperature, total amount dissolved within 30 seconds after the addition) [µg/mL]
1 | Cc1nc(-c2ccc(OCC(C)C)c(-n3cnnn3)c2)sc1C(=O)O [compound (I), 4-methyl-2-[4-(2-methylpropoxy)-3-(1H-1,2,3,4-tetrazol-1-yl)phenyl]-1,3-thiazole-5-carboxylic acid] | showed a hypouricemic effect | ≥ 40 | ≥ 50 | ≥ 50 | ≥ 50 | – | – | – | –
2 | Cc1nc(-c2ccc(OCC(C)C)c(-n3cnnn3)c2)sc1C(=O)[O-].[Na+] [compound (II), sodium 4-methyl-2-[4-(2-methylpropoxy)-3-(1H-1,2,3,4-tetrazol-1-yl)phenyl]-1,3-thiazole-5-carboxylate] | – | ≥ 40 | ≥ 50 | ≥ 50 | ≥ 50 | no precipitation was observed | ≤ 30 | 184 | 187
